Results taken from patent publication US20200368315A1, “ANTIMICROBIAL PEPTIDES AND ADMIXTURES THEREOF SHOWING ANTIMICROBIAL ACTIVITY AGAINST GRAM-NEGATIVE PATHOGENS” (priority 2017, published 2020).
Read-outs that look alike come from different tables or passages of the source. No end group written: not given here.

Tests used:
E. aerogenes LMG 02094 [1] = details: for MICb: MIC of GNP alone
Experimental: (§1) The test of synergistic effect was processed by conducting standard chequerboard broth microdilution assays. […] Row 11 are used as growth control with no peptide was included, while row 12 with MHB medium-only wells was included as a sterility control as referred before. 50 uL fresh bacterial suspension was added to well 1-11 and final volume of each well on the plate is 100 uL.
(§2) The test of synergistic effect was processed as method 1.4.
(§3) To determine whether the combination therapy is additive, synergistic or antagonistic, fractional inhibitory concentration (FIC) indices were calculated. FICI=FICa+FICb=MICac/MICa+MICbc/MICb. The MICa/MICb is the MIC of compound A/B alone. MICac is the MIC of compound A in combination with compound B and MICbc is the MIC of compound B when it was combination with compound A. […]. FICa is FIC of compound A while FICb is FIC of compound B. The FICI is interpreted as follows: synergistic, FICI≤0.5; additive, 0.5<FICI<1; indifferent, 1<FICI<2; antagonistic, FICI>2.

K. pneumoniae LMG20218 [2] = details: for MICb: MIC of GNP alone
Experimental: as §1, §2, §3

P. aeruginosa LMG 6395 [3] = details: for MICb: MIC of GNP alone; for MICbc: MIC of GNP in combination with vancomycin at the MICac concentration; for MICac: MIC of vancomycin in combination with the GNP at the MICbc concentration
Experimental: as §1, §2, §3

E. coli LMG15862 [4] = details: for MICb: MIC of GNP alone; for MICbc: MIC of GNP in combination with vancomycin at the MICac concentration; for MICac: MIC of vancomycin in combination with the GNP at the MICbc concentration
Experimental: as §1, §2, §3

A. baumannii LMG01041 [5] = details: for MICb: MIC of GNP alone
Experimental: as §1, §2, §3

A. baumannii LMG01041 [6] = assay type: cell-based, Acinetobacter baumannii; details: for MICb: MIC of GNP alone
Source text: (§4) The test of synergistic effect was processed by conducting standard chequerboard broth microdilution assays. Nisin (Drug X) was loaded two fold serially diluted from row 1 to 10 in X-axis while GNPs (Drug Y) were loaded in eight two fold serially diluted concentrations from line A to H in Y-axis (FIG. 1). The original concentrations of peptides were MICs of each. Row 11 are used as growth control with no peptide was included, while row 12 with MHB medium-only wells was included as a sterility control as referred before. 50 uL fresh bacterial suspension was added to well 1-11 and final volume of each well on the plate is 100 uL.
as §3

P. aeruginosa LMG 6395 [7] = assay type: cell-based, Pseudomonas aeruginosa; details: for MICb: MIC of GNP alone; for MICbc: MIC of GNP when used with the MICac concentration of nisin; for MICac: MIC of nisin in combination with the GNP at the MICbc concentration
Source text: as §4, §3

E. coli LMG15862 [8] = assay type: cell-based, Escherichia coli; details: for MICb: MIC of GNP alone; for MICbc: MIC of GNP when used with the MICac concentration of nisin; for MICac: MIC of nisin in combination with the GNP at the MICbc concentration
Source text: as §4, §3

K. pneumoniae LMG20218 [9] = assay type: cell-based, Klebsiella pneumoniae; details: for MICb: MIC of GNP alone
Source text: as §4, §3

E. aerogenes LMG 02094 [10] = assay type: cell-based, Enterobacter aerogenes; details: for MICb: MIC of GNP alone
Source text: as §4, §3

A. baumannii LMG01041 [11] = test: microbe, parasite or virus in culture; assay type: cell-based, Acinetobacter baumannii; details: LMG01041
Experimental: (§5) Escherichia coli, Klebsiella pneumoniae, Pseudomonas aeruginosa, Acinetobacter baumannii, Enterobacter aerogenes were grown in Luria-Bertani (LB) broth shaken (200 rpm) or on LB agar at 37° C. […] MICs tests were performed in duplicate by a liquid growth inhibition microdilution assays in sterilized polypropylene microtiter plates according to Wiegand and […] [27]. […] The suspension was diluted in a ratio of 1:100 using Mueller Hinton Broth (MHB) and the final inoculum is 5*10^5 CFU/mL. […] The antimicrobials were diluted serially by 1/2 one by one and 50 uL diluted bacterial suspension were added to each well to make the final volume to be 100 uL. Growth control was accomplished by remove 10 uL from well 11 and dilute 1000 times to plate 1/10 suspension on the solid medium. […] The number of colonies on the control agar plate should be around 50 to ensure the concentration of the inoculum and the effectiveness of the experiment. The lowest concentration of the antimicrobials that inhibits visible growth of the indicator is identified as MIC.

K. pneumoniae LMG20218 [12] = test: microbe, parasite or virus in culture; assay type: cell-based, Klebsiella pneumoniae; details: LMG20218
Experimental: as §5

P. aeruginosa LMG 6395 [13] = test: microbe, parasite or virus in culture; assay type: cell-based, Pseudomonas aeruginosa; details: LMG 6395
Experimental: as §5

E. aerogenes LMG 02094 [14] = test: microbe, parasite or virus in culture; assay type: cell-based, Enterobacter aerogenes; details: LMG 02094
Experimental: as §5

E. coli LMG15862 [15] = test: microbe, parasite or virus in culture; assay type: cell-based, Escherichia coli; details: L-form GNP; E. coli LMG15862; Table 6
Experimental: as §5

[16] = MIC of GNP in combination with vancomycin at the MICac concentration
[17] = MIC of vancomycin in combination with the GNP at the MICbc concentration
[18] = MIC of GNP when used with the MICac concentration of nisin
[19] = MIC of nisin in combination with the GNP at the MICbc concentration

| Substance | MICb (E. aerogenes LMG 02094 [1]) [µM] | MICb (K. pneumoniae LMG20218 [2]) [µM] | MICb (P. aeruginosa LMG 6395 [3]) [µM] | MICbc (P. aeruginosa LMG 6395 [3]) [µM] | MICac (P. aeruginosa LMG 6395 [3]) [µM] | MICb (E. coli LMG15862 [4]) [µM] | MICbc (E. coli LMG15862 [4]) [µM] | MICac (E. coli LMG15862 [4]) [µM] | MICb (A. baumannii LMG01041 [5]) [µM] | MICb (A. baumannii LMG01041 [6]) [µM] | MICb (P. aeruginosa LMG 6395 [7]) [µM] | MICbc (P. aeruginosa LMG 6395 [7]) [µM] | MICac (P. aeruginosa LMG 6395 [7]) [µM] | MICb (E. coli LMG15862 [8]) [µM] | MICbc (E. coli LMG15862 [8]) [µM] | MICac (E. coli LMG15862 [8]) [µM] | MICb (K. pneumoniae LMG20218 [9]) [µM] | MICb (E. aerogenes LMG 02094 [10]) [µM] | further results |
| --- | --- | --- | --- | --- | --- | --- | --- | --- | --- | --- | --- | --- | --- | --- | --- | --- | --- | --- | --- |
| KIVQRIKKWLR-NH2 [GNP8-2] | 256 | 32 | 16 | 2 | 16 | 16 | 2 | 4 | 128 | 128 | 16 | 4 | 4.5 | 16 | 2 | 1.5 | 32 | 256 | MICbc (E. aerogenes LMG 02094 [1]; [16]): 16 µM; MICac (E. aerogenes LMG 02094 [1]; [17]): 12 µM; MICbc (K. pneumoniae LMG20218 [2]; [16]): 8 µM; MICac (K. pneumoniae LMG20218 [2]; [17]): 16 µM; MICbc (A. baumannii LMG01041 [5]; [16]): 4 µM; MICac (A. baumannii LMG01041 [5]; [17]): 4 µM; MICbc (A. baumannii LMG01041 [6]; [18]): 16 µM; MICac (A. baumannii LMG01041 [6]; [19]): 0.375 µM; MICbc (K. pneumoniae LMG20218 [9]; [18]): 2 µM; MICac (K. pneumoniae LMG20218 [9]; [19]): 0.75 µM; MICbc (E. aerogenes LMG 02094 [10]; [18]): 1 µM; MICac (E. aerogenes LMG 02094 [10]; [19]): 4 µM |
| KRIVQRIKKWLR-NH2 [GNP-9] | – | – | – | – | – | – | – | – | – | – | – | – | – | – | – | – | – | – | MICb (MIC of GNP alone) (A. baumannii LMG01041 [11]): 16 µM; MICb (MIC of GNP alone) (K. pneumoniae LMG20218 [12]): 64 µM; MICb (MIC of GNP alone) (P. aeruginosa LMG 6395 [13]): 16 µM; MICb (MIC of GNP alone) (E. aerogenes LMG 02094 [14]): >32 µM; MICb (GNP concentration when used alone) (E. coli LMG15862 [15]): 4 µM |
| RIKRRIKKWLR-NH2 [GNP8-5] | >256 | >256 | 32 | 8 | 16 | 24 | 3 | 4 | >256 | >256 | 32 | 8 | 9 | 24 | 3 | 3 | >256 | >256 | – |
